The target in assay [1] is T1, rabbit muscle glycogen phosphorylase b (rmGPb) (Oryctolagus cuniculus, UniProt P00489).
T1 sequence (P00489 1-843): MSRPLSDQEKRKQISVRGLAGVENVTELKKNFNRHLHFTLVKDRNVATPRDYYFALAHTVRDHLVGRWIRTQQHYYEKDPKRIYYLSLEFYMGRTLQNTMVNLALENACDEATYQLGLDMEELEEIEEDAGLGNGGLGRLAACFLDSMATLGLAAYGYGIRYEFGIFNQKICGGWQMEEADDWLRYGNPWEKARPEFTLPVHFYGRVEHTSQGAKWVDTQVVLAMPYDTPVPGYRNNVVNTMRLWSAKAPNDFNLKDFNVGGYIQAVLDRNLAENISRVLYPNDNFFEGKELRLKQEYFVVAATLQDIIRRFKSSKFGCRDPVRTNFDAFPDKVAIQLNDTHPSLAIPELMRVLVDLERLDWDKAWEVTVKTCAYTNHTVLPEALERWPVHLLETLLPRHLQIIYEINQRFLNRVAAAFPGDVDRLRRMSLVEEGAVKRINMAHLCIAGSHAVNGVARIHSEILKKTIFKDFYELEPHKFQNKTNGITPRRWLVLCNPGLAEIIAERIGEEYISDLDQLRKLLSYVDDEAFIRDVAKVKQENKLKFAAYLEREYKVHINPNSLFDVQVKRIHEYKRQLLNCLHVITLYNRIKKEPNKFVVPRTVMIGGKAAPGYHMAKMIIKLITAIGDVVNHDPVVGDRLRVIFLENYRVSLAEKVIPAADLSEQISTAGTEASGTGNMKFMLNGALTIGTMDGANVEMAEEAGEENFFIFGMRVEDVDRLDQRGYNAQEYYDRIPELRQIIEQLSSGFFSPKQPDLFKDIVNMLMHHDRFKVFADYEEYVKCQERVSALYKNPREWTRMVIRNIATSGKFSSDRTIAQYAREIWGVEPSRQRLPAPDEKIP
Details: method as in PMID 26713107. The following applies: cited from earlier work.

The target of assay [2] is T1, rabbit muscle glycogen phosphorylase b (rmGPb). As to the kind of experiment: Glycogen phosphorylase binding assay (enzyme kinetics in the direction of glycogen synthesis). In kind it is biochemical. As to the method: The determined IC50 values are shown in Table 1, together with the previously determined Ki value for benchmark compound 1. […] Towards understanding the observed potencies, extensive computations on the bound and unbound states of the ligands were performed.
Enzyme activity was assayed into the direction of glycogen synthesis as previously presented. Kinetic data were collected using the muscle phosphorylase b (dephosphorylated, GPb) isoform. Kinetic data for the inhibition of GPb by the compounds were obtained in the presence of 10 μg/mL enzyme, varying concentrations of α-D-glucose-1-phosphate (4–40 mM), constant concentration (1%) of glycogen and AMP (1 mM). Enzymatic activities were presented in the form of a double-reciprocal plot (Lineweaver-Burk). The plots were analysed by a non-linear data analysis program. The inhibitor constants (Ki) were determined by secondary plots, replotting the slopes from the Lineweaver-Burk plot against the inhibitor concentrations. The means of standard errors for all calculated kinetic parameters averaged to less than 10% [48, 49].

The term IC50 denotes the concentration needed to halve the response being measured.

Where two headings read alike, the source gives them in different places.

With `OC[C@H]1O[C@@H](c2cc(-c3ccccc3)n[nH]2)[C@H](O)[C@@H](O)[C@@H]1O` [Compound 2], in assay [1], the IC50 is 850 µM.

Molecule `Nc1c([C@@H]2O[C@H](CO)[C@@H](O)[C@H](O)[C@H]2O)n[nH]c1-c1ccccc1` [Compound 3, 4-Amino-3-(β-D -glucopyranosyl)-5-phenyl-1H-pyrazole] gave an IC50 in assay [2] (rmGPb) of 565 µM.

Regarding `N=C(N)Nc1c([C@@H]2O[C@H](CO)[C@@H](O)[C@H](O)[C@H]2O)n[nH]c1-c1ccccc1` [Compound 4, 3-(β-D -Glucopyranosyl)-4-guanidino-5-phenyl-1H-pyrazole], the “inhibition of rmGPb” value in assay [2] (at 625 µM concentration, 625 µM) is reported as “no inhibition at 625 µM”.
